Key:
hMC5R = hMC5R (Homo sapiens, UniProt P33032); conditions: cited from earlier work
[1] = α-MSH levels after ip insulin injection; format: in vivo; conditions: POMC-Kir6.2 mutant mice and control littermates; human insulin 1.0 U/kg ip; FIG. 3B
Text: POMC-mutKIR6.2 mice is a mutant in which all POMC cells lack the capacity to sense glucose due to dysfunctional ATP/K+ channels. Mutants and wild-type littermates were fed a regular diet. Blood glucose and α-MSH samples were taken after ip injection of human insulin (1.0 U/kg). The results are shown in FIG. 3A. **P<0.01 vs baseline value in the respective group by repeated-measures ANOVA. # P<0.01 vs control littermate at the respective point by single measured.

[2] = test system: Rat L6 skeletal muscle cells; experiment: Glucose uptake in differentiated L6 cells; format: cell-based; conditions: 100 nM α-MSH and/or 10 nM insulin; FIG. 10
Description: Rat L6 skeletal muscle cells were seeded in 12-well plates and differentiated in myotubes by replacing growth medium (DMEM+10% FBS) with DMEM+2% horse serum. Medium was changed every day for 1 week. Cells were preincubated for 20 min with no glucose medium+0.1% fatty acid-free BSA. 10 nM of insulin and/or 100 nM α-MSH was added to the corresponding wells. Glucose uptake was assessed for 15 min using 2-deoxy-D-[2,6-^3H]glucose (1 mmol/1, 0.5 μCi/ml) in the presence or absence of 10 nM insulin and 100 nM of α-MSH. Radioactivity was measured in cell lysates by liquid scintillation counting.

adult monkey pituitaries = experiment: α-MSH release from halved pituitaries; format: cell-based; conditions: glucose 15 mM, insulin 200 nM, 45 min; FIG. 1A
Description: Adult monkey pituitaries (n=22) were halved and then treated separately with artificial cerebrospinal fluid (aCSF) equilibrated with 95% O2 and 5% CO2 and incubated at 37° C. After 1 hr equilibration period, halves were incubated for 45 min in aCSF (basal period) before being challenged with glucose (Glu): 15 mM, insulin (Ins): 200 nM or Glu+Ins (15 mM+200 nM) treatments for 45 min. […] This was confirmed by measurement of α-MSH in monkey pituitaries by radioimmunoassay after acidic extraction (FIG. 1B).

p-AMPK [3] = experiment: p-AMPK levels in soleus muscles treated in vitro (Western blot); format: cell-based; conditions: lean mice; 1, 10 and 100 nM for 45 min in vitro; FIG. 8
Description: Soleus muscles were dissected from anaesthetised mice. Muscles were incubated with α-MSH (at 1, 10, and 100 nM) for 45 min. After that, muscles were immediately homogenised in cold RIPA lysis buffer. Homogenates were centrifugated and supernatant were collected to measure protein contents ([…]). 50 μg of each sample was loaded on a 10% Tris-Glycine pre-cast gel. A liver protein sample was run as a positive control. The gel was then transferred onto an Immobilon PVDF membrane for 2 h and after blocking for 1 h with 5% milk in TBST, was incubated o/n with anti-p-AMPK antibody (1:1000; Cell Signaling Technology, Inc, Danvers, Mass., United States of America), anti-total AMPK (1:1000, Cell Signaling Technology, Inc), or anti-GAPDH antibody (1:20000). To avoid interferences with total AMPK antibody, membranes were stripped before incubating with this antibody. Goat anti-mouse IgG horseradish peroxidase (1:50000, Santa Cruz Biotechnology, Inc, Santa Cruz, Calif., United States of America) was used as secondary antibody.

[4] = Muscle temperature in sheep during α-MSH infusion; format: in vivo
Description: Four ovariectomised ewes were placed on a diet of temporal food restriction where food was made available between 11:00-16:00 h (as depicted by the grey box in FIGS. 4A and 4B). Animals were exposed to this feeding window for at least 2 weeks prior to experimentation. Then, one week before the onset of experiments, an indwelling cannulae was surgically inserted into the external jugular vein (experiment a) or femoral artery (experiment b). At the same time, a datalogger was implanted into the vastus lateralis muscle of the hindlimb and programmed to read temperature at 15 min intervals. Animals were treated with either α-MSH 100 μg/h (▾ triangles) for experiment a or 1 μg/h for experiment b or saline (800 μl/h, […]). Infusions were carried out between 10:00-19:00 h.

cAMP = cAMP levels in muscles after α-MSH infusion (immunoassay); format: in vivo; conditions: control mice; 45 minutes of α-MSH infusion; FIG. 9A
Description: To measure cAMP concentrations and to determine p-AMPK protein expression in muscles, an experiment was conducted according to a similar design to that described in FIG. 5. Muscle tissues were obtained after 45 minutes of initiating α-MSH infusion and 25 minutes of administering glucose injection. cAMP concentration was determined with a direct immunoassay kit (BioVision Research Products, Mountain View, Calif., United States of America). The kit has a cAMP polyclonal antibody onto the plate. cAMP-HRP conjugates directly compete with cAMP from sample binding to the cAMP antibody on the plate. The HRP activity at 450 nm is inversely proportional to the cAMP concentration in samples. White bars: saline infusion, dark bars: α-MSH infusion

p-AMPK [5] = experiment: p-AMPK protein expression in muscles after α-MSH infusion (Western blot); format: in vivo; conditions: control mice, FIG. 9B
Description: To measure cAMP concentrations and to determine p-AMPK protein expression in muscles, an experiment was conducted according to a similar design to that described in FIG. 5. Muscle tissues were obtained after 45 minutes of initiating α-MSH infusion and 25 minutes of administering glucose injection. cAMP concentration was determined with a direct immunoassay kit (BioVision Research Products, Mountain View, Calif., United States of America). The kit has a cAMP polyclonal antibody onto the plate. cAMP-HRP conjugates directly compete with cAMP from sample binding to the cAMP antibody on the plate. The HRP activity at 450 nm is inversely proportional to the cAMP concentration in samples. White bars: saline infusion, dark bars: α-MSH infusion p-AMPK and total AMPK were determined by Western blot. Results shown in FIG. 9B are expressed as a ratio P/Total AMPK. *P<0.05

[6] = Glucose disposal during ipGTT with systemic α-MSH infusion; format: in vivo, mice; conditions: for glucose disposal during ipGTT: systemic infusion (external jugular vein) 1 μg/h
Description: Mice were instrumented with an arterial catheter (carotid artery) to monitor blood pressure (BP), heart rate (HR) and for sampling. At the same time, a venous catheter (jugular vein) was placed to infuse α-MSH (1 μg/h) for 3 h. Blood glucose was measured before and at 10 and 20 mins of α-MSH infusion. After that, mice received an ip glucose injection (GTT, 1 mg/g). Blood glucose levels were measured at 15, 30, 60 and 120 mins after glucose challenge. BP and […] were recorded during whole procedure. The results are shown in FIGS. 5A and 5B. **[…] vs saline infusion. In a further experiment, MC4R activity was blocked using agouti-related peptide (AgRP; 1.0 nmol, 1 μl) administered (by injection to the lateral ventricle) 1 hr before commencement of the α-MSH infusion.

soleus muscles = experiment: Glucose uptake in isolated soleus muscles (2-deoxy-D-[3H]glucose); format: cell-based, mice; conditions: 100 nM, presence and absence of 10 nM insulin
Description: Mice were fasted overnight and soleus muscles were dissected from anaesthetised mice. Muscles were preincubated for 30 min with 1 ml of warmed (30° C.), pregassed (95% O2-5% CO2, pH 7.4), modified Krebs-Henseleit buffer supplemented with 2 mmol/l sodium pyruvate, 8 mmol/l mannitol, and 0.1% wt/vol BSA and were then incubated with or without 10 nM insulin, α-MSH (100 nM) or α-MSH plus insulin (100 nM+10 nM) for 20 min. Glucose uptake was assessed for 10 min using 2-deoxy-D-[2,6-^3H]glucose (1 mmol/1, 0.5 μCi/ml) in the presence or absence of 10 nM insulin. Radioactivity was measured in muscle lysates by liquid scintillation counting.

skeletal muscle cells = experiment: Glucose uptake in skeletal muscle cells with MC5R agonist; format: cell-based

Chain of hMC5R (P33032 whole entry): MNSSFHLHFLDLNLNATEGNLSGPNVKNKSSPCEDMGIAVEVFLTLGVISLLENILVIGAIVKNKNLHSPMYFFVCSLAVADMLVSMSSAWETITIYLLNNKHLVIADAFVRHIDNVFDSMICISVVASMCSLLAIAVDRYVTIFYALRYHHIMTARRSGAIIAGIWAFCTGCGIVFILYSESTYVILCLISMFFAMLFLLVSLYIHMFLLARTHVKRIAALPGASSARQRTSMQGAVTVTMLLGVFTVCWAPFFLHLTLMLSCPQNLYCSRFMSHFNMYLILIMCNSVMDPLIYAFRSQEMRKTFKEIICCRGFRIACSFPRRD

In the case of “Ac-Nle-c[Asp-Hyp-D-Nal(2′)-Arg-Trp-Lys]-NH2 [PG-911]”, the EC50 (hMC5R) is given as 0.031 nM.
In the case of insulin, the “α-MSH levels in response to insulin” value [1] is reported as “do not change”, the “glucose uptake by rat L6 cells” value [2] is reported as “increases in glucose uptake” and the “α-MSH release from pituitaries” value (adult monkey pituitaries) is reported as “stimulate α-MSH release”.
For “α-melanocyte stimulating hormone (SYSMEHFRWGKPV) [α-MSH, native peptide; native agonist for the type 1, 3, 4 and 5 melanocortin receptors]”, the p-AMPK muscle levels (p-AMPK [3]) was “dose-dependent increase of p-AMPK muscle levels”, the muscle temperature ([4]; direct infusion into femoral artery, 1 μg/h, FIG. 4B) was “causes an increase in muscle temperature” and the post-prandial muscle temperature ([4]; systemic infusion (external jugular vein), 100 μg/h, FIG. 4A) was “increases post-prandial muscle temperature”. The “glucose uptake by rat L6 cells” value [2] was “increases in glucose uptake”, the “cAMP levels in muscles” value (cAMP) was “increase of cAMP levels” and the “p-AMPK protein expression in muscles (ratio P/Total AMPK)” value (p-AMPK [5]) was “increased”. The “response to α-MSH infusion” value ([6]; MC4R KO mice, data not shown) was “intact response”, the “glucose disposal during ipGTT” value ([6]; control mice, FIG. 5A) was “increases glucose disposal” and the “glucose disposal during ipGTT” value ([6]; obese (DIO) mice, FIG. 5B) was “does not increase glucose disposal”. For the same substance, the “glucose uptake in soleus muscles” value (soleus muscles; control mice, FIG. 6A) was “increases glucose uptake” and the “glucose uptake in soleus muscles” value (soleus muscles; obese mice, FIG. 6B) was “does not increase glucose uptake”.
In the case of “Ac-Nle-c[Asp-Pro-D-Nal(2′)-Arg-Trp-Lys]-NH2 (XDPXRWK; Ac, amide, cyclic lactam, Nle, D-Nal(2'); PG-901)”, the “increases of glucose uptake in skeletal muscle cells” value (skeletal muscle cells; 1 nM and 5 nM amounts, FIG. 5D) is reported as 30-40%, the “effect of an MC3R and MC4R antagonist on the increase of glucose uptake” value (skeletal muscle cells; 1 nM and 5 nM amounts, data not shown) is reported as “unaffected by the presence of an MC3R and MC4R antagonist” and the “glucose uptake in muscle cells” value (skeletal muscle cells; FIG. 5D) is reported as “increases glucose uptake in muscle cells”.
In the case of “agouti-related peptide (SSRRCVRLHESCLGQQVPCCDPCATCYCRFFNAFCYCRKLGTAMNPCSRT; UniProt O00253 83-132, looked up) [AgRP, reference compound]”, the “effect on the response (increased glucose disposal) to α-MSH infusion” value ([6]; AgRP 1.0 nmol to lateral ventricle 1 hr before α-MSH infusion, to block MC4R, FIG. 5C) is reported as “does not prevent the response”.
